Consider 15 compounds from patent US10730911B2, “Backbone-cyclized peptidomimetics with GLP-1R modulating activity” (POLYPHOR AG, priority 2015, dated 2020).

The structures appear in SMILES notation. Where a SMILES comes first, the peptide text is derived from it. [ ]: non-standard residue; d: D form. The star is where a group is joined. Trp(5-OH) = N[C@@H](Cc1c[nH]c2ccc(O)cc12)C(=O)O; Phe(4-CN) = N#Cc1ccc(C[C@H](N)C(=O)O)cc1; Phe(4-NH2) = Nc1ccc(C[C@H](N)C(=O)O)cc1; 3Pal = N[C@@H](Cc1cccnc1)C(=O)O; 4Pal = N[C@@H](Cc1ccncc1)C(=O)O; Aic = NC1(C(=O)O)Cc2ccccc2C1; Ac6c = NC1(C(=O)O)CCCCC1; Ac5c = NC1(C(=O)O)CCCC1; Deg = CCC(N)(CC)C(=O)O; Bn = c1ccc(C*)cc1

In the test the target is T1, human glucagon-like peptide-1 receptor (GLP-1R) (Homo sapiens, UniProt P43220).
T1 construct: host or cells: CHO chAMPion cells
T1 sequence (P43220 24-463): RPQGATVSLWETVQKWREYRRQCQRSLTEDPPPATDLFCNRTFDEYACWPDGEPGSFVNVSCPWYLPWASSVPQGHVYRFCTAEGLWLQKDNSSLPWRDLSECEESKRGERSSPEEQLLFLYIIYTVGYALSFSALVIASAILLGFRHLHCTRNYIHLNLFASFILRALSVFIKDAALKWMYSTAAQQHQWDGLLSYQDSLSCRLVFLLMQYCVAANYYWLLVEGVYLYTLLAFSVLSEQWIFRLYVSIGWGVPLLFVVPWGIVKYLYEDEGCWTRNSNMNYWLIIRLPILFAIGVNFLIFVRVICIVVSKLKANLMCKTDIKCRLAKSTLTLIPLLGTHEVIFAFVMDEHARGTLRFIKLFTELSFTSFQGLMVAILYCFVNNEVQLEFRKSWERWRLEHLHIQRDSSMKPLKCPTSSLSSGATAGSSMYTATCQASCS
The test is described as follows: Human GLP-1 receptor cell-based assay (flash luminescence, Target Activation phase). Conditions: CHO chAMPion cells stably co-expressing human GLP-1R, Photina and cAMP-activated calcium channel; agonist activity; normalization by forskolin at 10 μM; ^a) values from single experiment; read-out: EC50 (μM) Target Activation (TA). From the text: CHO chAMPion cells (Axxam SpA; S. Corazza, Assay Drug Dev. Technol. 2009, 7, 304-307) stably co-expressing the human glucagon-like peptide-1 receptor (GLP-1R), the Ca^2+-sensitive photoprotein PHOTINA® (S. Bovolenta et al., J. Biomol. Screen. 2007, 12, 694-704) and a mutated cAMP-activated calcium ion channel (WO2004/083803 A2) were used to monitor GLP-1R signaling after stimulation with an agonist. Activation of the Gas-coupled GPCR GLP-1R was monitored by measuring the flash luminescence of the Ca^2+-sensitive photoprotein as reporter system with FLIPR^TETRA screening instrumentation (Molecular Devices) upgraded with an ICCD Camera (MDC). For data quality check and data analysis the Genedata SCREENER® software was used.
The reference agonist GLP-1 (glucagon-like peptide-1 amide fragment 7-36) and forskolin were purchased from Sigma (cat. G8147 and F6886, respectively) and prepared according to each ligand's specifications. All handling of ligands were done to ensure proper control throughout the experiments. The steps of the implemented workflow and data analysis are mainly as follows:
Stably transfected chAMPion cells are seeded 10000 c/w in 384 MTP in Dulbecco's MEM/nutrient mix F12 (BioWhittaker cat. BE04-687F/U1; 500 mL) supplemented with sodium pyruvate (BioWhittaker cat. BE13-115E; 5 mL of 100 mM solution), HEPES (BioWhittaker cat. BE17-737E; 6.5 mL of 1M solution), sodium bicarbonate (BioWhittaker cat. BE17-613E; 25 mL of 7.5% solution), fetal bovine serum (Euroclone cat. ECS 0180L; 50 mL), penicillin-streptomycin (BioWhittaker cat. DE17-602E; 5 mL of 100×solution), 1 mg/mL G418 (selection antibiotic for GLP-1R) and 200 μg/mL hygromycin in 25 μL/well for 24 hours. On the day of the experiment, plates are removed from the incubator, freed from the growth medium, equilibrated at room temperature for 1 h, loaded with 30 μl/well of Ca^2+ free Tyrode's buffer containing 20 μM coelentrazine and 500 μM IBMX, and incubated for 4 hours at room temperature.
All compounds were tested at 8 concentrations, starting from 50 μM in quadruplicate, intra-plate (dilution step 1:2.15) to determine EC50 values. After incubation, the volume in all the wells is flattened to 20 αL by aspiration with a CYBIO®-VARIO pipettor. First Injection (10 μL of test compounds in Ca^2+ free Tyrode's buffer, DMSO 0.5% v/v and BSA 0.01%; or 10 μL of reference compounds GLP-1 or forskolin in Ca′ free Tyrode's buffer, DMSO 0.5% v/v and BSA 0.01%) is performed by the FLIPR^TETRA and the kinetic response is optionally monitored over a period of 60 seconds. Incubation for 30 minutes at room temperature is followed by the Second Injection (Tyrode's buffer+10 mM CaCl2)) and the kinetic response is monitored over a period of 60 seconds.
The kinetic response is divided into two distinct phases: monitoring the kinetic response after the First Injection, termed Compound Addition (CA), and monitoring the kinetic response after the Second Injection of 10 mM CaCl2, termed Target Activation (TA). Agonist activity of compounds is evaluated in the Target Activation (TA) phase and it is based on normalization to TA activation by forskolin at 10 μM or GLP-1 at 3.16 nM (EC100)
A good correlation was observed between EC50, data normalized by forskolin and by GLP-1.
Consider `CC(C)C[C@@H]1NC(=O)[C@H](Cc2c[nH]c3ccccc23)NC(=O)[C@H](Cc2ccccc2)NC(=O)C2(CCCCC2)NC(=O)[C@H]2CCCN2C(=O)[C@H](Cc2ccc(O)cc2)NC(=O)[C@H](CCC(=O)O)NC(=O)[C@H](Cc2c[nH]c3ccccc23)NC(=O)[C@H](C)NC(=O)[C@H](Cc2ccc(O)cc2)NC1=O` [compound 12, cyclo(-Phe-Trp-Leu-Tyr-Ala-Trp-Glu-Tyr-^DPro-Chx-)] (cyclo(FWLYAWEY[dP][Ac6c])), for which the EC50 was 0.48 ± 0.24 µM. Under `C[C@@H]1NC(=O)[C@H](Cc2ccc(O)cc2)NC(=O)[C@H](CCC(N)=O)NC(=O)[C@H](Cc2cccnc2)NC(=O)[C@H](Cc2ccccc2)NC(=O)C2(CCCCC2)NC(=O)[C@H]2CCCN2C(=O)[C@H](CCCNC(=N)N)NC(=O)[C@H](CCC(=O)O)NC(=O)[C@H](Cc2c[nH]c3ccccc23)NC1=O` [compound 19, cyclo(-Phe-3Pal-Gln-Tyr-Ala-Trp-Glu-Arg-^DPro-Chx-)] (cyclo(F[3Pal]QYAWER[dP][Ac6c])) stands 0.72 ± 0.38 µM; under `C[C@@H]1NC(=O)[C@H](Cc2ccc(O)cc2)NC(=O)[C@H](CCC(N)=O)NC(=O)[C@H](Cc2ccncc2)NC(=O)[C@H](Cc2ccccc2)NC(=O)C2(CCCCC2)NC(=O)[C@H]2CCCN2C(=O)[C@H](Cc2ccc(O)cc2)NC(=O)[C@H](CCC(=O)O)NC(=O)[C@H](Cc2c[nH]c3ccccc23)NC1=O` [compound 33, cyclo(-Phe-4Pal-Gln-Tyr-Ala-Trp-Glu-Tyr-^DPro-Chx-)] (cyclo(F[4Pal]QYAWEY[dP][Ac6c])), 0.99 ± 0.37 µM; under `CC(C)C[C@@H]1NC(=O)[C@H](CCC(=O)O)NC(=O)[C@H](Cc2ccccc2)NC(=O)C2(CCCC2)NC(=O)[C@H]2CCCN2C(=O)[C@H](Cc2ccccc2)NC(=O)[C@H](CCC(=O)O)NC(=O)[C@H](Cc2c[nH]c3ccccc23)NC(=O)[C@H](C)NC(=O)[C@H](Cc2ccc(O)cc2)NC1=O` [compound 48, cyclo(-Phe-Glu-Leu-Tyr-Ala-Trp-Glu-Phe-^DPro-Cyp-)] (cyclo(FELYAWEF[dP][Ac5c])), 0.9 ± 0.18 µM. In the case of `CC(C)C[C@@H]1NC(=O)[C@H](CCC(N)=O)NC(=O)[C@H](Cc2c[nH]c3ccccc23)NC(=O)[C@H](Cc2ccccc2)NC(=O)C2(CCCC2)NC(=O)[C@H]2CCCN2C(=O)[C@H](Cc2ccccc2)NC(=O)[C@H](CCC(=O)O)NC(=O)[C@H](Cc2c[nH]c3ccccc23)NC(=O)[C@H](C)NC1=O` [compound 46, cyclo(-Phe-Trp-Gln-Leu-Ala-Trp-Glu-Phe-^DPro-Cyp-)] (cyclo(FWQLAWEF[dP][Ac5c])), the EC50 stood at 5.1 ± 1.4 µM. For the compound `C[C@@H]1NC(=O)[C@H](Cc2ccc(O)cc2)NC(=O)[C@H](CCC(N)=O)NC(=O)[C@H](Cc2cccnc2)NC(=O)[C@H](Cc2ccccc2)NC(=O)C2(CCCCC2)NC(=O)[C@H]2CCCN2C(=O)[C@H](Cc2ccc(O)cc2)NC(=O)[C@H](CCC(=O)O)NC(=O)[C@H](Cc2c[nH]c3ccccc23)NC1=O` [compound 2, cyclo(-Phe-3Pal-Gln-Tyr-Ala-Trp-Glu-Tyr-^DPro-Chx-)] (cyclo(F[3Pal]QYAWEY[dP][Ac6c])), the EC50 is 0.28 ± 0.26 µM. Turning to `C[C@@H]1NC(=O)[C@H](Cc2ccc(O)cc2)NC(=O)[C@H](CCC(N)=O)NC(=O)[C@H](Cc2ccc(OCc3ccccc3)cc2)NC(=O)[C@H](Cc2ccccc2)NC(=O)C2(CCCCC2)NC(=O)[C@H]2CCCN2C(=O)[C@H](Cc2ccc(O)cc2)NC(=O)[C@H](CCC(=O)O)NC(=O)[C@H](Cc2c[nH]c3ccccc23)NC1=O` [compound 5, cyclo(-Phe-Tyr(Bn)-Gln-Tyr-Ala-Trp-Glu-Tyr-^DPro-Chx-)] (cyclo(FY(Bn)QYAWEY[dP][Ac6c])), the EC50 is 0.15 ± 0.05 µM.

For the compound `CC(C)C[C@@H]1NC(=O)[C@H](CCC(=O)O)NC(=O)[C@H](Cc2ccccc2)NC(=O)C2(CCCCC2)NC(=O)[C@H]2CCCN2C(=O)[C@H](Cc2c[nH]c3ccc(O)cc23)NC(=O)[C@H](CCC(=O)O)NC(=O)[C@H](Cc2c[nH]c3ccccc23)NC(=O)[C@H](C)NC(=O)[C@H](Cc2ccc(O)cc2)NC1=O` [compound 25, cyclo(-Phe-Glu-Leu-Tyr-Ala-Trp-Glu-Trp(5OH)-^DPro-Chx-)] (cyclo(FELYAWE[Trp(5-OH)][dP][Ac6c])), the EC50 was 0.94 ± 0.68 µM. Turning to `CCC1(CC)NC(=O)[C@H]2CCCN2C(=O)[C@H](Cc2ccccc2)NC(=O)[C@H](CCC(=O)O)NC(=O)[C@H](Cc2c[nH]c3ccccc23)NC(=O)[C@H](C)NC(=O)[C@H](CC(C)C)NC(=O)[C@H](CC(C)C)NC(=O)[C@H](CCC(=O)O)NC(=O)[C@H](Cc2ccccc2)NC1=O` [compound 47, cyclo(-Phe-Glu-Leu-Leu-Ala-Trp-Glu-Phe-^DPro-Deg-)] (cyclo(FELLAWEF[dP][Deg])), the EC50 turned out to be 2 µM. `CC(C)C[C@@H]1NC(=O)[C@H](CCC(=O)O)NC(=O)[C@H](Cc2ccccc2)NC(=O)C2(CCCCC2)NC(=O)[C@H]2CCCN2C(=O)[C@H](Cc2ccc(O)cc2)NC(=O)[C@H](CCC(=O)O)NC(=O)[C@H](Cc2c[nH]c3ccccc23)NC(=O)[C@H](C)NC(=O)[C@H](Cc2ccc(C#N)cc2)NC1=O` [compound 37, cyclo(-Phe-Glu-Leu-Phe(4CN)-Ala-Trp-Glu-Tyr-^DPro-Chx-)] (cyclo(FEL[Phe(4-CN)]AWEY[dP][Ac6c])): the EC50 was found to be 0.88 µM. In the case of `CC(C)C[C@@H]1NC(=O)[C@H](CCC(=O)O)NC(=O)[C@H](Cc2ccccc2)NC(=O)C2(Cc3ccccc3C2)NC(=O)[C@H]2CCCN2C(=O)[C@H](Cc2ccc(O)cc2)NC(=O)[C@H](CCC(=O)O)NC(=O)[C@H](Cc2c[nH]c3ccccc23)NC(=O)[C@H](C)NC(=O)[C@H](Cc2ccc(O)cc2)NC1=O` [compound 13, cyclo(-Phe-Glu-Leu-Tyr-Ala-Trp-Glu-Tyr-^DPro-Ind-)] (cyclo(FELYAWEY[dP][Aic])), the EC50 worked out at 0.66 ± 0.25 µM. Under `COc1ccc(C[C@@H]2NC(=O)[C@H](CC(C)C)NC(=O)[C@H](CCC(=O)O)NC(=O)[C@H](Cc3ccccc3)NC(=O)C3(CCCCC3)NC(=O)[C@H]3CCCN3C(=O)[C@H](Cc3ccc(OC)cc3)NC(=O)[C@H](CCC(=O)O)NC(=O)[C@H](Cc3c[nH]c4ccccc34)NC(=O)[C@H](C)NC2=O)cc1` [compound 34, cyclo(-Phe-Glu-Leu-Tyr(Me)-Ala-Trp-Glu-Tyr(Me)-^DPro-Chx-)] (cyclo(FELY(Me)AWEY(Me)[dP][Ac6c])) stands 0.73 µM; under `CC(C)C[C@@H]1NC(=O)[C@H](CC(C)C)NC(=O)[C@H](CCC(=O)O)NC(=O)[C@H](Cc2ccccc2)NC(=O)C2(CCCC2)NC(=O)[C@H]2CCCN2C(=O)[C@H](Cc2ccccc2)NC(=O)[C@H](CCC(=O)O)NC(=O)[C@H](Cc2c[nH]c3ccccc23)NC(=O)[C@H](C)NC1=O` [compound 44, cyclo(-Phe-Glu-Leu-Leu-Ala-Trp-Glu-Phe-^DPro-Cyp-)] (cyclo(FELLAWEF[dP][Ac5c])), 2.9 ± 0.7 µM; under `C[C@@H]1NC(=O)[C@H](Cc2ccc(O)cc2)NC(=O)[C@H](CCC(N)=O)NC(=O)[C@H](Cc2ccc(N)cc2)NC(=O)[C@H](Cc2ccccc2)NC(=O)C2(CCCCC2)NC(=O)[C@H]2CCCN2C(=O)[C@H](Cc2ccc(O)cc2)NC(=O)[C@H](CCC(=O)O)NC(=O)[C@H](Cc2c[nH]c3ccccc23)NC1=O` [compound 3, cyclo(-Phe-Phe(4NH2)-Gln-Tyr-Ala-Trp-Glu-Tyr-^DPro-Chx-)] (cyclo(F[Phe(4-NH2)]QYAWEY[dP][Ac6c])), 0.18 ± 0.18 µM. Under `C[C@@H]1NC(=O)[C@H](Cc2ccc(O)cc2)NC(=O)[C@H](CCC(N)=O)NC(=O)[C@H](Cc2c[nH]c3ccccc23)NC(=O)[C@H](Cc2ccccc2)NC(=O)C2(CCCCC2)NC(=O)[C@H]2CCCN2C(=O)[C@H](Cc2c[nH]c3ccc(O)cc23)NC(=O)[C@H](CCC(=O)O)NC(=O)[C@H](Cc2c[nH]c3ccccc23)NC1=O` [compound 18, cyclo(-Phe-Trp-Gln-Tyr-Ala-Trp-Glu-Trp(5OH)-^DPro-Chx-)] (cyclo(FWQYAWE[Trp(5-OH)][dP][Ac6c])) stands 0.82 ± 0.55 µM.
